# Measurements published in the supplement of paper PMC10307832.
# Assays:
# Test in all cases: relative viability (nuclei count vs DMSO), 5 days (fraction); higher = more cells survive
# [1] = compound: CCCCCCCC[C@H]1[C@@H](C(=C)C(=O)O1)C(=O)O [C-75]
# Summary of the method: (§1)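 Only plates meeting two conditions passed: control CV below 25% and at least one doubling. Lung cancer cell lines, kept overnight at 37 °C in 1536-well plates, were pinned with five library-drug doses (not always all listed) √10 apart on vehicle-anchored plates and grown 5 days without medium change. A one-step fix, permeabilisation and Hoechst stain preceded 4× imaging and MetaXpress nuclear counting. Viability equals treated-well nuclei divided by vehicle-well nuclei, as the median over plates.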
# [2] = compound: CC1(C)CCC(c2ccc(Cl)cc2)=C(CN2CCN(c3ccc(C(=O)NS(=O)(=O)c4ccc(N[C@H](CCN5CCOCC5)CSc5ccccc5)c(S(=O)(=O)C(F)(F)F)c4)cc3)CC2)C1 [Navitoclax]
# Summary of the method: as §1
# [3] = compound: NC(=O)Nc1cc(-c2cccc(F)c2)sc1C(=O)N[C@H]1CCCNC1 [AZD7762]
# Summary of the method: as §1
# [4] = compound: O=C(O)c1ccc(-c2c[nH]c3ncc(-c4ccccc4)cc23)cc1C1CCCC1
# Summary of the method: as §1
# [5] = compound: Oc1nc(-c2ccc(C(F)(F)F)cc2)nc2c1CSCC2 [XAV939]
# Summary of the method: as §1
Cell Line,relative viability ([1]; 0.08 µM),relative viability ([1]; 0.253 µM),relative viability ([1]; 0.8 µM),relative viability ([1]; 2.53 µM),relative viability ([1]; 8 µM),relative viability ([2]; 0.005 µM),relative viability ([2]; 0.01581 µM),relative viability ([2]; 0.05 µM),relative viability ([2]; 0.1581 µM),relative viability ([2]; 0.5 µM),"relative viability ([2]; 0.5 µM, anchor plate)",relative viability ([3]; 0.01 µM),relative viability ([3]; 0.03162 µM),relative viability ([3]; 0.1 µM),"relative viability ([3]; 0.2 µM, anchor plate)",relative viability ([3]; 0.3162 µM),relative viability ([3]; 1 µM),relative viability ([4]; 0.04 µM),relative viability ([4]; 0.1265 µM),relative viability ([4]; 0.4 µM),relative viability ([4]; 1.265 µM),relative viability ([5]; 0.08 µM),relative viability ([5]; 0.253 µM),relative viability ([5]; 0.8 µM),relative viability ([5]; 2.53 µM)
EMC-BAC-2,0.959,0.952,0.908,0.828,0.921,0.924,1.02,0.981,0.932,0.976,1.16,1.05,1.02,1.05,1.17,0.995,0.975,0.993,1.04,0.974,0.899,1.01,0.969,0.869,0.655
EPLC-272H,1.06,1.01,0.78,0.744,0.575,0.993,–,0.888,0.922,0.921,1.13,0.892,1.06,0.935,0.278,0.742,0.267,0.976,1.1,0.992,0.697,0.95,0.97,0.92,0.957
H3255,0.963,0.973,0.945,0.901,0.995,0.979,1.17,0.87,0.92,0.786,0.529,1.05,1.04,1.04,0.971,0.958,0.856,0.954,1.04,0.97,0.944,1.06,0.892,0.814,0.895
HARA,0.989,0.963,0.858,0.788,1.03,0.84,1.26,0.811,0.911,1.01,1.13,0.986,0.946,0.999,0.367,0.88,0.368,0.955,1.23,0.846,1.02,1.04,0.904,0.825,0.764
HCC-15,1,0.965,0.968,0.798,0.925,0.986,1.14,0.838,0.99,0.947,0.696,1.02,0.907,1.02,1.24,0.969,1.03,1.03,1.07,0.965,0.586,1.14,0.932,0.96,0.971
HCC-44,1,0.991,0.908,0.824,1.05,0.897,0.906,0.977,0.849,0.96,0.98,1.01,0.958,1.06,1,0.874,0.914,0.97,0.99,0.973,0.928,0.962,0.899,0.915,0.929
HCC-78,0.948,0.882,0.817,0.761,0.95,1.03,1.11,0.729,0.958,1.02,0.737,1.02,1.14,0.978,0.706,0.95,0.552,0.929,1.24,1.1,0.864,0.923,0.8,0.919,0.667
HCC-366,0.974,1.11,0.975,0.763,0.982,1.04,1.05,0.728,0.968,1.07,1.03,0.981,1.03,0.998,0.289,0.886,0.393,1,1.02,0.998,0.971,0.971,0.9,1,1.01
HCC-827,1.01,0.953,1.01,0.976,1.07,1.07,1.12,0.953,1.04,1.05,1.02,1.05,1.08,1.08,0.23,1.1,0.731,0.96,1.07,0.993,0.863,1.04,1.06,0.991,1.02
HOP-62,1.02,1.01,1.01,0.891,1.02,0.966,1.06,0.968,0.926,1.03,1,1.04,0.999,1.17,0.639,1.02,0.939,1.08,1.07,0.964,0.923,1.13,0.996,0.891,0.893
IA-LM,0.917,1.14,0.87,0.676,0.853,0.941,1.07,0.915,1,0.977,0.755,1.12,1.02,1.15,–,1.01,0.708,0.921,1.1,1.07,0.887,0.937,0.864,0.935,0.701
LC-2-ad,1.05,1.02,0.93,0.789,0.986,0.961,1.07,0.925,0.948,0.991,0.445,0.992,1.1,0.998,0.86,0.908,0.644,0.973,1.1,0.933,0.692,1.03,0.904,0.953,1
LCLC-97TM1,0.963,1.09,0.95,0.813,0.622,0.966,1.06,0.915,0.94,1.02,0.502,1.05,0.98,1.11,0.281,0.926,0.588,1.04,0.957,0.98,0.901,0.975,0.764,0.879,0.944
LCLC-103H,0.919,0.998,0.909,0.788,1.03,1.02,1.03,0.83,1.04,1.05,–,1.03,0.974,1.02,0.796,0.907,0.992,1.01,1.08,0.991,1.09,1.08,0.914,0.92,0.831
LK-2,0.911,1.25,1.02,0.841,0.706,1.02,1.03,1.11,0.997,1.02,0.886,1.05,1.12,0.955,0.467,0.938,0.776,1,1.06,0.872,0.944,1.06,0.877,1.01,0.755
LOU-NH91,0.959,0.977,0.862,0.778,0.969,1.01,1,0.921,0.865,0.513,0.718,0.941,1.1,0.975,0.784,0.894,0.775,0.934,1.14,0.975,0.915,0.979,0.868,0.954,0.953
LU99A,1,0.928,0.97,0.834,0.858,0.916,1.13,0.933,1.03,1.04,0.839,0.943,1.1,0.995,0.356,0.986,0.414,0.958,0.941,0.894,0.65,0.78,0.827,0.939,1.02
LXF-289,0.958,0.95,0.983,0.862,1.02,0.974,0.989,0.884,0.99,0.972,0.949,0.963,1.02,1.05,1.1,0.979,1.07,0.969,0.967,0.876,0.703,1,0.94,0.998,1.03
NCI-H23,0.897,1.07,0.867,0.687,0.44,0.925,0.979,0.98,0.896,0.962,0.869,0.866,1.07,0.993,0.273,0.693,0.278,0.947,1.22,0.812,0.699,0.973,0.796,0.982,0.838
NCI-H322M,0.964,1.22,0.905,0.839,0.952,1.03,1.1,0.926,0.974,1.06,1.24,0.956,1.06,0.928,0.589,0.683,0.397,1.01,1.02,0.956,0.886,1.03,0.835,0.852,0.655
NCI-H358,0.849,0.896,0.874,0.854,0.693,1.01,1.2,0.961,0.985,0.977,–,1.02,1.13,0.878,0.536,0.758,0.444,0.893,1.17,0.88,0.611,0.795,0.77,0.857,0.777
NCI-H441,1.14,1.09,0.907,0.764,0.957,0.981,1.07,1.06,1.11,0.986,0.701,1.11,1.2,1.05,1.14,1.34,1.03,1.01,1.08,0.817,0.6,1.18,0.962,1.1,1.04
NCI-H460,1.01,1.04,0.922,0.768,0.946,0.988,1.01,0.951,0.977,0.963,1.08,1.06,1,1.01,0.618,0.954,0.387,1.01,1.05,0.991,0.92,0.996,0.88,0.944,0.929
NCI-H520,1.02,1.21,0.952,0.615,0.825,0.997,0.925,1.14,0.99,0.94,1.12,1.09,1.01,0.972,–,0.89,0.337,1.03,0.894,1.01,0.902,1.09,0.965,0.87,0.928
NCI-H522,0.97,0.898,1.02,0.721,0.873,0.841,1.12,1.03,0.912,0.978,–,1.02,1.15,0.955,0.841,0.939,0.839,0.851,1.13,0.83,0.945,0.962,0.901,0.983,0.881
NCI-H596,1.01,1.14,0.909,0.852,0.997,1.07,0.942,0.711,0.964,1.04,0.936,1.07,1.08,1.08,1.1,0.929,0.891,0.927,0.982,1.02,0.971,1.1,1.02,1.11,1.03
